Source: patent US9492508B2, “Parathyroid hormone analogs and uses thereof” (The General Hospital Corporation, priority 2010, dated 2016)
Each block holds one molecule with its values, some of them ahead of it. Square brackets hold non-standard residues; d marks the D form. Ends that are not written are not given here. Peptide text beside a SMILES is read from it. hArg = N=C(N)NCCCC[C@H](N)C(=O)O; Aib = CC(C)(N)C(=O)O

Assays:
[1] = Repetitive daily dosing in TPTX rats (10 days); type: in vivo, rat; details: calcitriol 0.2 μg/kg oral daily 10 days
Protocol: FIGS. 20A-20D are graphs showing effects of once-daily SP-PTH on serum and urine Ca in TPTX rats. TPTX and sham-control rats were treated once daily, for 10 days, via sc. injection with either vehicle (Sham and TPTX) or SP-PTH (SEQ ID NO:11) (1, 2. 4, or 8 nmol/kg), or with 1,25(OH)2D (0.075 or 0.2 μg/kg. orn). After the last injection on day 10, the rats were placed in metabolic cages, and jugular vein blood was obtained at 8 (FIG. 20A) and 24 hrs (FIG. 20B); urine was collected for the intervals 0-8 (FIG. 20C) and 8-24 hrs (FIG. 20D); means±s.e.m: n=5; ′˜, P vs vehicle <005.
In therapeutic use in humans, one would administer doses sufficient to only normalize blood Ca. A key experiment is to determine if it is indeed feasible to normalize sCa following a repetitive dosing regimen. We thus performed the experiment of FIGS. 20A-2D, in which TPTX rats were treated daily for 10 days with SP-PTH at doses of 1, 2, 4 and 8 nmol/kg (s.c). For comparison, 1,25(OH)2-vitamin-D (calcitriol) at doses of 0.075 and 0.2 mcg/kg (oral) were used for the same time periods.

[2] = Peptide pharmacokinetics in TPTX rats
rat PTHR1 (R0) = molecular target: T1, rat PTHR1 (R0) (Rattus norvegicus, UniProt P25961); experiment: Competition binding, R0 conformation of rat PTHR1; details: R0 conformation; mean of 4 experiments; read-out: Binding rat PTHR1 IC50 (Log M) R0 (converted)
T1 sequence (P25961 27-591): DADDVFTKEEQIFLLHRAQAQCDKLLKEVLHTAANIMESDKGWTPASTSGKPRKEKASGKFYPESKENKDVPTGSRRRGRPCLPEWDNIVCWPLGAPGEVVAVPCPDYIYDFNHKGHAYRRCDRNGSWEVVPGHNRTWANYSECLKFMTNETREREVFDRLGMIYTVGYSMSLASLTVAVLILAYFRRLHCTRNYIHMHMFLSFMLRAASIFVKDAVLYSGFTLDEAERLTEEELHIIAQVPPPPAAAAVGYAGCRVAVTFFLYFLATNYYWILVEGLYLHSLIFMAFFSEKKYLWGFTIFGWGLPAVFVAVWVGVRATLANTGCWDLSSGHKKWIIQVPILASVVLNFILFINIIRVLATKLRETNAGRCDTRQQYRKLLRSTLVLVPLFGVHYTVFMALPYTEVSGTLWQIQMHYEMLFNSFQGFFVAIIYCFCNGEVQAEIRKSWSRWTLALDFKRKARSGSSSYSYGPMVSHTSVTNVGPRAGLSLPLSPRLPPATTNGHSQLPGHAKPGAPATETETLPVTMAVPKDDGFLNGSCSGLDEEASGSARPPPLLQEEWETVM
Excerpt: Briefly, the R^0 form of the receptor can be favored by addition of the non-hydrolyzable nucleotide analog GTPγS. The RG form can be favored, for example, by co-transfection of cells with a negative dominant Gαs subunit. […] Data are means of four experiments, each performed in duplicate. Curves were fit to the data using Graph-Pad Prism 4.0.

MC3T3-E1 cells = experiment: cAMP RIA in intact MC3T3-E1 cells; type: cell-based, mouse; details: 30 min, room temperature, IBMX
Protocol: cAMP stimulating activity of these polypeptides was also assessed, using two different methods: a radioimmunoassay (RIA; FIG. 2) and a cAMP responsive element fused to a luciferase gene (FIG. 3). Briefly, the RIA cAMP assays were performed in intact MC3T3-E1 cells, a mouse pre-osteoblastic cell line, in 96-well plates, as described by Okazaki et al. (Proc Natl Acad Sci USA 105:16525-30, 2008). […] The cAMP contents of the HCl lysates were then determined by RIA. Data are means of six experiments, each performed in duplicate. Curves were fit to the data using Graph-Pad Prism 4.0.

rat PTH receptor = molecular target: T2, rat PTH receptor (rat, UniProt P25961 27-591, limits assumed); experiment: radioligand displacement, rat PTHR1, R0 conformation
T2 construct: R0 and RG conformations assayed separately by the method of WO 2009/017809 or a similar one; also called rat PTHR1
T2 sequence (looked up): T1 sequence (P25961 27-591)

human PTH-1 receptor [3] = molecular target: T3, human PTH-1 receptor (human, UniProt Q03431 27-593); experiment: radioligand competition, human PTHR1 in COS-7 membranes, R0 conformation
T3 construct: whole, on cells; also called human PTHR1; human PTH receptor
T3 sequence (looked up): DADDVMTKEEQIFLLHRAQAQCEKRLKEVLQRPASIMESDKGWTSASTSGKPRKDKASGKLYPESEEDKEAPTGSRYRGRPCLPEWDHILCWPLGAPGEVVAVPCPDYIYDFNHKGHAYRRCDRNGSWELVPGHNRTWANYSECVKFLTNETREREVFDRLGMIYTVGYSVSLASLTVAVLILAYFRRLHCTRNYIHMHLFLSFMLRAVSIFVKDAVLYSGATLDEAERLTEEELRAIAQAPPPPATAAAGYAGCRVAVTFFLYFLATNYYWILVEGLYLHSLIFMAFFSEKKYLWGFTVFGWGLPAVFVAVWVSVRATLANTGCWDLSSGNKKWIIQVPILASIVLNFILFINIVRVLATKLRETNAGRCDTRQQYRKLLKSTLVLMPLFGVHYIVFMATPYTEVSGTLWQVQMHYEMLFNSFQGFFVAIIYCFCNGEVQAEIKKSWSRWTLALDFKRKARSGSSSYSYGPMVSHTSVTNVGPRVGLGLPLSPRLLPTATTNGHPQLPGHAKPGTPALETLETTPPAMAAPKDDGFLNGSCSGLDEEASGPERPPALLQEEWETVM
Protocol: (§1) Here, competition binding assays for the R⁰ and RG PTHR1 conformation were performed in membranes prepared from transfected COS-7 cells, as described by Dean et al., Mol Endocrinol 22:156-66, 2008. Data are means of three experiments, each performed in duplicate. Curves were fit to the data using Graph-Pad Prism 4.0.

human PTH-1 receptor [4] = molecular target: T3, human PTH-1 receptor; experiment: radioligand competition, human PTHR1 in COS-7 membranes, RG conformation
Protocol: as §1

[5] = Crl:CD(SD), rat, in vivo, iv, 24.3 nmol/kg
[6] = TPTX rats, 24.3 nmol/kg intravenously, mean

Molecule: C=C1/C(=C\C=C2/CCC[C@]3(C)[C@@H]([C@H](C)CCCC(C)(C)O)CC[C@@H]23)C[C@@H](O)C[C@@H]1O [calcitriol, 1,25(OH)2-vitamin-D, reference compound]
- sCa achieved [1]: 8 to 9 mg/dL
- urine calcium [1]: elevated urine calcium

Molecule: CC[C@H](C)[C@H](NC(=O)[C@H](CCC(=O)O)NC(=O)[C@H](CO)NC(=O)[C@@H](NC(=O)[C@@H](N)CO)C(C)C)C(=O)N[C@@H](CCC(N)=O)C(=O)N[C@@H](CC(C)C)C(=O)N[C@@H](CCSC)C(=O)N[C@@H](Cc1c[nH]cn1)C(=O)N[C@@H](CC(N)=O)C(=O)N[C@@H](CC(C)C)C(=O)NCC(=O)N[C@@H](CCCCN)C(=O)N[C@@H](Cc1c[nH]cn1)C(=O)N[C@@H](CC(C)C)C(=O)N[C@@H](CC(N)=O)C(=O)N[C@@H](CO)C(=O)N[C@@H](CCSC)C(=O)N[C@@H](CCC(=O)O)C(=O)N[C@@H](CCCNC(=N)N)C(=O)N[C@H](C(=O)N[C@@H](CCC(=O)O)C(=O)N[C@@H](Cc1c[nH]c2ccccc12)C(=O)N[C@@H](CC(C)C)C(=O)N[C@@H](CCCNC(=N)N)C(=O)N[C@@H](CCCCN)C(=O)N[C@@H](CCCCN)C(=O)N[C@@H](CC(C)C)C(=O)N[C@@H](CCC(N)=O)C(=O)N[C@@H](CC(=O)O)C(=O)N[C@H](C(=O)N[C@@H](Cc1c[nH]cn1)C(=O)N[C@@H](CC(N)=O)C(=O)N[C@@H](Cc1ccccc1)C(=O)N[C@H](C(=O)N[C@@H](C)C(=O)N[C@@H](CC(C)C)C(=O)NCC(=O)N[C@@H](C)C(=O)N1CCC[C@H]1C(=O)N[C@@H](CC(C)C)C(=O)N[C@@H](C)C(=O)N1CCC[C@H]1C(=O)N[C@@H](CCCNC(=N)N)C(=O)N[C@@H](CC(=O)O)C(=O)N[C@@H](C)C(=O)NCC(=O)N[C@@H](CO)C(=O)N[C@@H](CCC(N)=O)C(=O)N[C@@H](CCCNC(=N)N)C(=O)N1CCC[C@H]1C(=O)N[C@@H](CCCNC(=N)N)C(=O)N[C@@H](CCCCN)C(=O)N[C@@H](CCCCN)C(=O)N[C@@H](CCC(=O)O)C(=O)N[C@@H](CC(=O)O)C(=O)N[C@@H](CC(N)=O)C(=O)N[C@H](C(=O)N[C@@H](CC(C)C)C(=O)N[C@H](C(=O)N[C@@H](CCC(=O)O)C(=O)N[C@@H](CO)C(=O)N[C@@H](Cc1c[nH]cn1)C(=O)N[C@@H](CCC(=O)O)C(=O)N[C@@H](CCCCN)C(=O)N[C@@H](CO)C(=O)N[C@@H](CC(C)C)C(=O)NCC(=O)N[C@@H](CCC(=O)O)C(=O)N[C@@H](C)C(=O)N[C@@H](CC(=O)O)C(=O)N[C@@H](CCCCN)C(=O)N[C@@H](C)C(=O)N[C@@H](CC(=O)O)C(=O)N[C@H](C(=O)N[C@@H](CC(N)=O)C(=O)N[C@H](C(=O)N[C@@H](CC(C)C)C(=O)N[C@H](C(=O)N[C@@H](CCCCN)C(=O)N[C@@H](C)C(=O)N[C@@H](CCCCN)C(=O)N[C@@H](CO)C(=O)N[C@@H](CCC(N)=O)C(=O)O)[C@@H](C)O)C(C)C)C(C)C)C(C)C)C(C)C)C(C)C)C(C)C)C(C)C [hPTH (1-84), hPTH(1-84)]
- MRT [2, 5]: 3.58 min
- Vd [2, 5]: 0.0662 L/kg
- clearance [2, 5]: 17.2 mL/min/kg
- half-life [2, 5]: 5.44 min
- AUCinf [2, 6]: 1663 pmol·min/mL
- AUClast [2, 6]: 1663 pmol·min/mL

Further lines, with some results ahead:

- IC50 (rat PTHR1 (R0)): 1.48 nM
- EC50 (MC3T3-E1 cells): 0.048 nM
- cAMP MC3T3-E1 cells EC50 (Log M) (MC3T3-E1 cells; 6 experiments): −10.3 ± 0.1 Log M
Molecule: CC[C@H](C)[C@H](NC(=O)[C@H](CCC(=O)O)NC(=O)C(C)(C)NC(=O)[C@@H](NC(=O)[C@H](C)N)C(C)C)C(=O)N[C@@H](CCC(N)=O)C(=O)N[C@@H](CC(C)C)C(=O)N[C@@H](CCSC)C(=O)N[C@@H](Cc1c[nH]cn1)C(=O)N[C@@H](CCC(N)=O)C(=O)N[C@@H](CCCCNC(=N)N)C(=O)N[C@@H](C)C(=O)N[C@@H](CCCCN)C(=O)N[C@@H](Cc1c[nH]c2ccccc12)C(=O)N[C@@H](CC(C)C)C(=O)N[C@@H](CC(N)=O)C(=O)N[C@@H](CO)C(=O)N[C@@H](CCSC)C(=O)N[C@@H](CCCNC(=N)N)C(=O)N[C@@H](CCCNC(=N)N)C(=O)N[C@H](C(=O)N[C@@H](CCC(=O)O)C(=O)N[C@@H](Cc1c[nH]c2ccccc12)C(=O)N[C@@H](CC(C)C)C(=O)N[C@@H](CCCNC(=N)N)C(=O)N[C@@H](CCCCN)C(=O)N[C@@H](CCCCN)C(=O)N[C@@H](CC(C)C)C(=O)N[C@@H](CCC(N)=O)C(=O)N[C@@H](CC(=O)O)C(=O)N[C@H](C(=O)N[C@@H](Cc1c[nH]cn1)C(=O)N[C@@H](CC(N)=O)C(=O)N[C@@H](Cc1ccccc1)C(N)=O)C(C)C)C(C)C [M-PTH(1-34), M-PTH(1-34).NH2, reference compound] (H-AV[Aib]EIQLMHQ[hArg]AKWLNSMRRVEWLRKKLQDVHNF-NH2; N-terminus assumed)
- cAMP MC3T3-E1 cells Emax (pmole/well) (MC3T3-E1 cells): 56.3 ± 13.4 pmole/well

- IC50 (rat PTH receptor): 0.93 nM
- IC50 (human PTH-1 receptor [3]): 1.8 nM
- IC50 (human PTH-1 receptor [4]): 0.69 nM
B1: Aib-SP-PTH ([Ala1,12,Aib3,Gln10,Har11,Trp14]PTH(1-14)/PTHrP(15-36)) (peptide)
peptide: AV[Aib]EIQLMHQ[hArg]AKWIQDLRRRFFLHHLIAEIHTAEI-NH2
modifications: N-terminus assumed
SMILES: CC[C@H](C)[C@H](NC(=O)[C@H](CCC(=O)O)NC(=O)[C@H](C)NC(=O)[C@@H](NC(=O)[C@H](Cc1c[nH]cn1)NC(=O)[C@@H](NC(=O)[C@H](CCC(=O)O)NC(=O)[C@H](C)NC(=O)[C@@H](NC(=O)[C@H](CC(C)C)NC(=O)[C@H](Cc1c[nH]cn1)NC(=O)[C@H](Cc1c[nH]cn1)NC(=O)[C@H](CC(C)C)NC(=O)[C@H](Cc1ccccc1)NC(=O)[C@H](Cc1ccccc1)NC(=O)[C@H](CCCNC(=N)N)NC(=O)[C@H](CCCNC(=N)N)NC(=O)[C@H](CCCNC(=N)N)NC(=O)[C@H](CC(C)C)NC(=O)[C@H](CC(=O)O)NC(=O)[C@H](CCC(N)=O)NC(=O)[C@@H](NC(=O)[C@H](Cc1c[nH]c2ccccc12)NC(=O)[C@H](CCCCN)NC(=O)[C@H](C)NC(=O)[C@H](CCCCNC(=N)N)NC(=O)[C@H](CCC(N)=O)NC(=O)[C@H](Cc1c[nH]cn1)NC(=O)[C@H](CCSC)NC(=O)[C@H](CC(C)C)NC(=O)[C@H](CCC(N)=O)NC(=O)[C@@H](NC(=O)[C@H](CCC(=O)O)NC(=O)C(C)(C)NC(=O)[C@@H](NC(=O)[C@H](C)N)C(C)C)[C@@H](C)CC)[C@@H](C)CC)[C@@H](C)CC)[C@@H](C)CC)[C@@H](C)O)C(N)=O
notes: Synthetic hybrid analog of human PTH(1-14) and human PTHrP(15-36); also called Super-potent Aib-PTH; M-PTH(1-14)/rP(15-36)NH2
